Assay results reported in patent US20070059294A1, “Therapeutiv preparation for hematopoietic disease” (priority 2003, published 2007).

What was measured:
Assay type in all cases: cell-based, mouse
syno^−/− MEFs [1] = assay: DNA fragmentation, cell death detection ELISA; conditions: indicated doses of stimuli, FIG. 5B, p<0.01
Method: (§1) (A) MEFs derived from syno^+/+ and syno^−/− mice were treated with various apoptotic stimuli, including anti-Fas monoclonal antibodies (1μg/ml for 48 hours), X-irradiation (6 Gy for 72 hours), thapsigargin (1 μM for 48 hours) and tunicamycin (10 ng/ml for 48 hours), or untreated (−), in low serum (1%FCS) medium. Apoptotic cells were detected by TUNEL analysis. (B) syno^+/+ and syno^−/− MEFs were treated with indicated dose of stimuli. Apoptosis was measured by quantitation of DNA fragmentation using the cell death detection ELISA method (Boehringer Mannheim). *p<0.01. The number of apoptotic syno^−/− MEFs was higher in cultures treated with thapsigargin and tunicamycin compared with the respective syno^+/+ MEFs. (C) syno^+/+ and syno^−/− MEFs were infected with adenovirus vector (100 moi) carrying LacZ(−) or synoviolin gene(+), then treated with the same aforementioned agents. In syno^−/− MEFs, ER-stress induced apoptosis was rescued by infection with synoviolin.

syno^−/− MEFs [2] = assay: TUNEL apoptosis assay of MEFs treated with apoptotic stimuli; conditions: thapsigargin 1 μM 48 h, tunicamycin 10 ng/ml 48 h; for proportion of apoptotic (TUNEL-positive) cells: syno^−/− MEFs, low serum (1% FCS), anti-Fas 1 μg/ml 48 h
Method: (§2) Apoptosis can be induced through several pathways. To identify the apoptotic pathway that describes Synoviolin involvement, mouse embryonic fibroblasts (MEFs) isolated from syno^−/− and wild-type mice were treated in vitro with the following four apoptotic stimuli, monoclonal anti-Fas antibodies (Abs), gamma-irradiation, tunicamycin (N-glycosylation inhibitor), and thapsigargin (Ca^2-ATPase inhibitor). Under control conditions, the proportion of syno^−/− MEF apoptotic cells was higher (16±4%) than MEF wild-type (6±2%, FIG. 5A). […] Moreover, the sensitivity against ER stress-induced agents was increased in a dose-dependent fashion (FIG. 5B).
(§3) Tissues were prepared as described above. Conditioned culture cells were fixed in 10% formalin for 15 minutes and attached to APS-coated slide glasses. These specimens were subjected to TUNEL assay. TUNEL assay was performed according to the protocol provided by the manufacturer (Apoptosis in situ detection kit; Wako, Osaka, Japan).
(§4) MEFs were isolated from E10.5 embryos of syno^−/− and wild-type mice by trypsin digestion after removal of the head and internal organs. Isolated cells were cultured in Dulbecco's modified Eagle's medium containing 20% fetal calf serum (FCS).
as §1

wild-type MEFs = assay: as above; conditions: low serum (1% FCS), anti-Fas 1 μg/ml 48 h, thapsigargin 1 μM 48 h, tunicamycin 10 ng/ml 48 h
Method: as §2, §3, §4, §1

Compound	number of apoptotic syno^−/− MEFs compared with the respective syno^+/+ MEFs (syno^−/− MEFs [1])	proportion of apoptotic (TUNEL-positive) cells (syno^−/− MEFs [2])	increase in number of TUNEL-positive syno^−/− MEFs compared with wild-type MEFs (syno^−/− MEFs [2])	proportion of apoptotic (TUNEL-positive) cells (wild-type MEFs)
C/C=C(/C)C(=O)O[C@H]1C(C)=C2[C@H]([C@@H]1OC(=O)CCCCCCC)[C@@](C)(OC(C)=O)C[C@H](OC(=O)CCC)[C@@]1(O)[C@H]2OC(=O)[C@@]1(C)O [thapsigargin]	higher	90±1%	2.4 fold	38±7%
tunicamycin	higher	56±3%	1.7 fold	33±7%
